The target in this test is T1, wild-type HIV-1 protease (Human immunodeficiency virus type 1 group M subtype B, UniProt P04585).
T1 construct: Escherichia coli expressed wild-type HIV-1 protease protein; made in house; host or cells: Escherichia coli
Kind of test: Assay for Inhibition of Microbial Expressed HIV Protease. The test is classed as biochemical. The note with it: Escherichia coli expressed wild-type HIV-1 protease, peptide substrate cleavage; mean of at least two independent experiments. Here is the method: Inhibition of Escherichia coli expressed wild-type HIV-1 protease protein was carried out with a peptide substrate [Val-Ser-Gln-Asn-Wnaphtyl)Ala-Pro-Ile-Val]. The inhibitor compound was preincubated with HIV-1 protease enzyme in assay buffer (50 mM sodium acetate, pH 5.5, 100 mM NaCl, and 0.1% BSA) for 30 minutes at room temperature. Peptide substrate was added to 400 μM in a total volume of 20 μL containing 20 pM HIV-1 protease (final) after which the reaction was incubated for 1 hour at 30° C. The reaction was quenched by the addition of formic acid and HIV protease inhibitor indinavir to 0.012% and 150 nM final concentrations, respectively. Product formation was determined after separation of product and substrate on a ZORBAX Eclipse XDB-C18 column (Aligent Technologies, Santa Clara, Calif., USA) connected to an API 4000™ mass spectrometer (AB Sciex, Pte. Ltd., Concord Ontario, Canada) with multiple reaction monitoring (transitions were 644.5/428.9 and 615.4/422.2 (M1/M3) for product and indinavir respectively). The extent of inhibition of the reaction was determined from the peak area of the products. Analysis of the products, independently synthesized, provided quantitation standards and confirmation of the product composition. […] Ic50's refer to the 50% inhibition of the cleavage of a peptide substrate by hiv protease.
Data shown in the table reflects the mean of at least two independent experiments.

On to `C[C@H](c1ccc(F)cc1)N(C)C(=O)c1cccc(CN2C(=N)NC(c3ccc(F)cc3)(c3ccc(F)cc3)C2=O)c1` [Example 44, 3-{[4,4-bis(4-fluorophenyl)-2-imino-5-oxoimidazolidin-1-yl]methyl}-N-[(1R)-1-(4-fluorophenyl)ethyl]-N-methylbenzamide], for which the IC50 amounted to 29.2 nM. The figure for `CN(C)C(=O)c1cccc(CN2C(=N)NC(c3ccccc3)(c3ccc(-c4ccccc4)cc3)C2=O)c1` (stereo not shown) [Example 45, 3-[(4-biphenyl-4-yl-2-imino-5-oxo-4-phenylimidazolidin-1-yl)methyl]-N,N-dimethylbenzamide] is 30.3 nM.

`CN(Cc1ccccc1C(F)(F)F)C(=O)c1cccc(CN2C(=N)NC(c3ccc(F)cc3)(c3ccc(F)cc3)C2=O)c1` [Example 46, 3-{[4,4-bis(4-fluorophenyl)-2-imino-5-oxoimidazolidin-1-yl]methyl}-N-methyl-N-[2-(trifluoromethyl)-benzyl]benzamide] returned an IC50 of 31.1 nM. The figure for `CCCC1(c2ccccc2)NC(=N)N(Cc2cccc(C(=O)N(C)Cc3ccc(Cl)cn3)c2)C1=O` (stereo not shown) [Example 47, N-[(5-chloropyridin-2-yl)methyl]-3-[(2-imino-5-oxo-4-phenyl-4-propylimidazolidin-1-yl)methyl]-N-methylbenzamide] is 33.3 nM; for `C[C@H](c1ccccc1)N(C)C(=O)c1cccc(CN2C(=N)NC(c3ccccc3)(c3ccccc3)C2=O)c1` [Example 48, 3-[(2-imino-5-oxo-4,4-diphenylimidazolidin-1-yl)methyl]-N-methyl-N-[(1R)-1-phenylethyl]benzamide] it is 39.6 nM; for `CC(C)CCC1(c2cccc(F)c2)NC(=N)N(Cc2cccc(C(=O)N(C)Cc3ccc(Cl)cc3)c2)C1=O` (stereo not shown) [Example 49, N-(4-chlorobenzyl)-3-{[4-(3-fluorophenyl)-2-imino-4-(3-methylbutyl)-5-oxoimidazolidin-1-yl]methyl}-N-methylbenzamide] it is 43.5 nM. For the compound `[2H]C([2H])([2H])N(C(=O)c1cccc(CN2C(=N)NC(c3ccc(F)cc3)(c3ccc(F)cc3)C2=O)c1)[C@H](C)c1ccc(F)cc1` [Example 50, 3-{[4,4-bis(4-fluorophenyl)-2-imino-5-oxoimidazolidin-1-yl]methyl}-N-[(1R)-1-(4-fluorophenyl)ethyl]-N(~2~H_3_)methylbenzamide], the IC50 was determined as 45.1 nM.

For the compound `CN(C)C(=O)c1cccc(CN2C(=N)NC(c3ccccc3)(c3cccc(-c4cccc(C#N)c4)c3)C2=O)c1` (stereo not shown) [Example 51, 3-{[4-(3'-cyanobiphenyl-3-yl)-2-imino-5-oxo-4-phenylimidazolidin-1-yl]methyl}-N,N-dimethylbenzamide], the IC50 was found to be 45.5 nM.

Take `CN(Cc1ccccc1S(C)(=O)=O)C(=O)c1cccc(CN2C(=N)NC(c3ccc(F)cc3)(c3ccc(F)cc3)C2=O)c1` [Example 52, 3-{[4,4-bis(4-fluorophenyl)-2-imino-5-oxoimidazolidin-1-yl]methyl}-N-methyl-N-[2-(methylsulfonyl)-benzyl]benzamide]: the IC50 was determined as 48.3 nM.

Compound `CN(C)C(=O)c1cccc(CN2C(=N)NC(c3ccc(F)cc3)(c3cccc(Br)c3)C2=O)c1` (stereo not shown) [Example 53, 3-{[4-(3-bromophenyl)-4-(4-fluorophenyl)-2-imino-5-oxoimidazolidin-1-yl]methyl}-N,N-dimethylbenzamide] had an IC50 of 48.6 nM. In turn, `CN(C)C(=O)c1cccc(CN2C(=N)NC(c3ccccc3)(c3ccc(-c4cccc(C#N)c4)cc3)C2=O)c1` (stereo not shown) [Example 54, 3-{[4-(3'-cyanobiphenyl-4-yl)-2-imino-5-oxo-4-phenylimidazolidin-1-yl]methyl}-N,N-dimethylbenzamide] came in with an IC50 of 52.2 nM. With `CC(C)C[C@@]1(c2ccccc2)NC(=N)N([C@H](C)c2cccc(C(=O)N(C)Cc3ccc(F)cc3)c2)C1=O` [Example 55, N-(4-fluorobenzyl)-3-((R)-1-((S)-2-imino-4-isobutyl-5-oxo-4-phenylimidazolidin-1-yl)ethyl)-N-methylbenzamide], it took 52.9 nM to reach half-maximal inhibition (IC50).

`CN(C)C(=O)c1cccc(CN2C(=N)NC(c3ccccc3)(c3cccc(-c4ccco4)c3)C2=O)c1` (stereo not shown) [Example 56, 3-{[4-(3-furan-2-ylphenyl)-2-imino-5-oxo-4-phenylimidazolidin-1-yl]methyl}-N,N-dimethylbenzamide] had an IC50 of 56.3 nM.

`CN(Cc1cccnc1)C(=O)c1cccc(CN2C(=N)NC(c3ccc(F)cc3)(c3ccc(F)cc3)C2=O)c1` [Example 57, 3-{[4,4-bis(4-fluorophenyl)-2-imino-5-oxoimidazolidin-1-yl]methyl}-N-methyl-N-(pyridin-3-ylmethyl)benzamide] returned an IC50 of 58.9 nM. Compound `CN(C)C(=O)c1cccc(CN2C(=N)NC(c3ccc(F)cc3)(c3cccc(-c4cccc(C#N)c4)c3)C2=O)c1` (stereo not shown) [Example 58, 3-{[4-(3'-cyanobiphenyl-3-yl)-4-(4-fluorophenyl)-2-imino-5-oxoimidazolidin-1-yl]methyl}-N,N-dimethylbenzamide] returned an IC50 of 63.4 nM. With `CN(Cc1ccccn1)C(=O)c1cccc(CN2C(=N)NC(c3ccc(F)cc3)(c3ccc(F)cc3)C2=O)c1` [Example 59, 3-{[4,4-bis(4-fluorophenyl)-2-imino-5-oxoimidazolidin-1-yl]methyl}-N-methyl-N-(pyridin-2-ylmethyl)benzamide], the midpoint of inhibition, the IC50, lay at 65.9 nM.

Compound `CN(Cc1cccc(S(C)(=O)=O)c1)C(=O)c1cccc(CN2C(=N)NC(c3ccc(F)cc3)(c3ccc(F)cc3)C2=O)c1` [Example 60, 3-{[4,4-bis(4-fluorophenyl)-2-imino-5-oxoimidazolidin-1-yl]methyl}-N-methyl-N-[3-(methylsulfonyl)benzyl]benzamide] showed an IC50 of 69.2 nM.

Turning to `COc1ccccc1CN(C)C(=O)c1cccc(CN2C(=N)NC(c3ccc(F)cc3)(c3ccc(F)cc3)C2=O)c1` [Example 61, 3-{[4,4-bis(4-fluorophenyl)-2-imino-5-oxoimidazolidin-1-yl]methyl}-N-(2-methoxybenzyl)-N-methylbenzamide], the IC50 stood at 76.7 nM. `CN(C)C(=O)c1cccc(CN2C(=N)NC(c3ccccc3)(c3ccc(Br)cc3)C2=O)c1` (stereo not shown) [Example 62, 3-{[4-(4-bromophenyl)-2-imino-5-oxo-4-phenylimidazolidin-1-yl]methyl}-N,N-dimethylbenzamide]: the IC50 was found to be 77.3 nM. The figure for `CN(C)C(=O)c1cccc(CN2C(=N)NC(c3ccccc3)(c3cccc(-c4ccccc4)c3)C2=O)c1` (stereo not shown) [Example 63, 3-[(4-biphenyl-3-yl-2-imino-5-oxo-4-phenylimidazolidin-1-yl)methyl]-N,N-dimethylbenzamide] is 83.4 nM; for `CN(Cc1ccc(Cl)cc1)C(=O)c1cccc(CN2C(=N)NC(c3ccc(F)cc3)(c3cccc(-c4cccc(C#N)c4)c3)C2=O)c1` (stereo not shown) [Example 64, N-(4-chlorobenzyl)-3-{[4-(3'-cyanobiphenyl-3-yl)-4-(4-fluorophenyl)-2-imino-5-oxoimidazolidin-1-yl]methyl}-N-methylbenzamide] it is 86.9 nM. The figure for `CN(Cc1ccccc1F)C(=O)c1cccc(CN2C(=N)NC(c3ccc(F)cc3)(c3ccc(F)cc3)C2=O)c1` [Example 65, 3-{[4,4-bis(4-fluorophenyl)-2-imino-5-oxoimidazolidin-1-yl]methyl}-N-(2-fluorobenzyl)-N-methylbenzamide] is 89.9 nM.
